According to patent US11628162B2, “Methods of treating cancer with an FGFR inhibitor” (Incyte Corporation, priority 2019, dated 2023):
Entries after “also recorded” stand apart in the source; their conditions may differ. Like-named read-outs stand apart in the source and are kept apart here.

Assays:
CYP1A2 = target: T1, CYP1A2 (Homo sapiens, UniProt P05177); experiment: In vitro metabolism of pemigatinib by recombinant human CYP1A2; assay type: in vitro ADME
T1 sequence (P05177 1-516): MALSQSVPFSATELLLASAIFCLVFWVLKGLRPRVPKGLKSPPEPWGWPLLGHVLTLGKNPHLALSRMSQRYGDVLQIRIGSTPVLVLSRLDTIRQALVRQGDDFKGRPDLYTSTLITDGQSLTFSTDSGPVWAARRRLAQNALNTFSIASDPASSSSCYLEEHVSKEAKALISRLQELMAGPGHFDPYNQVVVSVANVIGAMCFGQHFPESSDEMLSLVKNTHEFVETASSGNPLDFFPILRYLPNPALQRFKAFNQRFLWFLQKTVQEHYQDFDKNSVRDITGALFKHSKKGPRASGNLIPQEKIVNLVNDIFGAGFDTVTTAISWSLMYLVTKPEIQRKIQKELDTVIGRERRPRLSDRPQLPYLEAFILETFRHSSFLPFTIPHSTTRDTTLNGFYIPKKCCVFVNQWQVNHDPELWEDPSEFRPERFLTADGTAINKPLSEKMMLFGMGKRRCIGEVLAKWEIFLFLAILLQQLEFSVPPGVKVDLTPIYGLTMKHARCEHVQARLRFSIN
Protocol: (§1) In vitro metabolism studies were conducted to determine the human cytochrome P450 (CYP) isozyme(s) capable of metabolizing pemigatinib.
(§2) In vitro metabolism studies were conducted to determine the individual human recombinant CYP isozymes capable of metabolizing pemigatinib (1 μM) and included CYP1A2, CYP2B6, CYP2C8, CYP2C9, CYP2C19, CYP2D6, or CYP3A4.

CYP2B6 = target: T2, CYP2B6 (Homo sapiens, UniProt P20813); experiment: In vitro metabolism of pemigatinib by recombinant human CYP2B6; assay type: in vitro ADME
T2 sequence (P20813 1-491): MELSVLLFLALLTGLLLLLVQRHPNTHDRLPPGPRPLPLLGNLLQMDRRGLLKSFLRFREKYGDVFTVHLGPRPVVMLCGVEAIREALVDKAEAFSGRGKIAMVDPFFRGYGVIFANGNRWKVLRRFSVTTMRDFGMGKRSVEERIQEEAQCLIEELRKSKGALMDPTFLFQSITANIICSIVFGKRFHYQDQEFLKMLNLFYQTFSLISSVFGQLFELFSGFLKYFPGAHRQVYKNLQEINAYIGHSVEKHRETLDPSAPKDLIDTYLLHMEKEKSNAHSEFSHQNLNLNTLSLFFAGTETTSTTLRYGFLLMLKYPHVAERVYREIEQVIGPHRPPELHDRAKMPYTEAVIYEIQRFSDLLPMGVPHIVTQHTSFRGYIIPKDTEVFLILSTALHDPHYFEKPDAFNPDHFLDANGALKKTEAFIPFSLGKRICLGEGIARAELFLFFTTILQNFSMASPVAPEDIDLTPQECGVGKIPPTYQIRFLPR
Protocol: as §1, §2

CYP2C19 = CYP2C19 (Homo sapiens, UniProt P33261); experiment: In vitro metabolism of pemigatinib by recombinant human CYP2C19; assay type: in vitro ADME
Protocol: as §1, §2

CYP2D6 = CYP2D6 (Homo sapiens, UniProt P10635); experiment: In vitro metabolism of pemigatinib by recombinant human CYP2D6; assay type: in vitro ADME
Protocol: as §1, §2

CYP3A4 = target: T3, CYP3A4 (Homo sapiens, UniProt P08684); experiment: In vitro metabolism of pemigatinib by recombinant human CYP3A4; assay type: in vitro ADME
T3 construct: host or cells: in silico (Simcyp virtual population); observed values come from healthy volunteers
Protocol: as §1, §2

[1] = Mass balance and metabolite identification (human ADME) data; assay type: in vivo
[2] = Phase I dose escalation and dose expansion study, observed PK in cancer patients; assay type: in vivo; details: human, plasma, geometric mean; for AUC: read-out: Observed AUCss; for Cmax: read-out: Observed Cmax, ss
Protocol: The pemigatinib PBPK model was developed from healthy volunteer was used to describe cancer patients PK data from phase I dose escalation and dose expansion study (6-20 mg). The model was used to predict pemigatinib plasma concentration-time curves in cancer patients after multiple oral dose of 6, 9, 13.5 and 20 mg pemigatinib because only one patient was dosed for 1, 2 and 4 mg, respectively.

[3] = Permeability of pemigatinib (statement, no method given); assay type: in vitro ADME
[4] = Phase 1 drug-drug interaction study: safety and tolerability (TEAEs)
Protocol: In addition, this study also evaluates the safety and tolerability of pemigatinib when administered alone or in combination with itraconazole or rifampin. Safety and tolerability is assessed by monitoring adverse events, vital signs, physical examinations, 12-lead ECGs, and clinical laboratory blood and urine sample assessments. Pharmacokinetic endpoints include tmax, AUC0-t, AUC0-∞, t1/2, CL/F, and Vz/F.
Vital signs (oral temperature; respiratory rate; automated, seated blood pressure; and pulse) are obtained at screening, check-in, and follow-up; at 0 hour (predose) on Days 1 and 8; and at approximately 1, 2, 3, 6, and 24 hours after the morning dose on Day 4 and Day 9. Clinical safety laboratory assessments are performed at screening; on Days −1, 2, 5, 9, 10, and 11; and at follow-up. A serum pregnancy is obtained at screening and follow-up. A urine pregnancy test is obtained at check-in for each visit for all women. On Day 8, a 12-lead ECG is performed predose, 2 hours postdose, and approximately 24 hours postdose. On other days, 12-lead ECGs are performed only at predose.
Vital signs (oral temperature; respiratory rate; automated, seated blood pressure; and pulse) are obtained at screening, check-in and follow-up; at 0 hour (predose) on Days 1 and 11; and at approximately 1, 2, 3, 6, and 24 hours after the morning dose on Days 4, 10, and 12. Clinical safety laboratory assessments are performed at screening; on Days −1, 2, 8, and 13; and at follow-up. A serum pregnancy test is obtained at screening and follow-up. A urine pregnancy test is obtained at check-in for each visit for all women. On Day 11, a 12-lead ECG is performed predose, 2 hours postdose, and approximately 24 hours postdose. On other days, 12-lead ECGs is performed only at predose.

[5] = Phase 1 drug-drug interaction study: single-dose pemigatinib PK alone or with itraconazole or rifampin
[6] = Cohort 1 (n=18): pemigatinib 4.5 mg alone and with itraconazole
[7] = Cohort 1: 4.5 mg pemigatinib alone or with itraconazole 200 mg QD, geometric mean
[8] = Cohort 1: 4.5 mg pemigatinib alone or with itraconazole 200 mg QD, mean ± SD
[9] = Cohort 2: 13.5 mg pemigatinib alone or with rifampin 600 mg QD, geometric mean
[10] = Cohort 2: 13.5 mg pemigatinib alone or with rifampin 600 mg QD, mean ± SD
[11] = pemigatinib with/without itraconazole, geometric mean

T3 sequence (P08684 whole entry): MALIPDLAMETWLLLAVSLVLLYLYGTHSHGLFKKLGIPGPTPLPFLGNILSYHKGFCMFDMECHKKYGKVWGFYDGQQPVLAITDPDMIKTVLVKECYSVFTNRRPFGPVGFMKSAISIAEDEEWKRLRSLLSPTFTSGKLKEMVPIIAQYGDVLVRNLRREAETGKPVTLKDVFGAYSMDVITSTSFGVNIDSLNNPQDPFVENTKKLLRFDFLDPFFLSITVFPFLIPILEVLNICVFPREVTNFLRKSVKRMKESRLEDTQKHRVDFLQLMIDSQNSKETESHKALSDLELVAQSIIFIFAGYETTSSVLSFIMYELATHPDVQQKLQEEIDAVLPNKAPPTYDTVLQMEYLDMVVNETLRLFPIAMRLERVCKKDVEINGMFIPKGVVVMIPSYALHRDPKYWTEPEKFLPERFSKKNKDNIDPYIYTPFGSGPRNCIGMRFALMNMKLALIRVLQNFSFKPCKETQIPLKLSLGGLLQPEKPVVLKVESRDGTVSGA
Sequence of CYP2D6 (P10635 whole entry): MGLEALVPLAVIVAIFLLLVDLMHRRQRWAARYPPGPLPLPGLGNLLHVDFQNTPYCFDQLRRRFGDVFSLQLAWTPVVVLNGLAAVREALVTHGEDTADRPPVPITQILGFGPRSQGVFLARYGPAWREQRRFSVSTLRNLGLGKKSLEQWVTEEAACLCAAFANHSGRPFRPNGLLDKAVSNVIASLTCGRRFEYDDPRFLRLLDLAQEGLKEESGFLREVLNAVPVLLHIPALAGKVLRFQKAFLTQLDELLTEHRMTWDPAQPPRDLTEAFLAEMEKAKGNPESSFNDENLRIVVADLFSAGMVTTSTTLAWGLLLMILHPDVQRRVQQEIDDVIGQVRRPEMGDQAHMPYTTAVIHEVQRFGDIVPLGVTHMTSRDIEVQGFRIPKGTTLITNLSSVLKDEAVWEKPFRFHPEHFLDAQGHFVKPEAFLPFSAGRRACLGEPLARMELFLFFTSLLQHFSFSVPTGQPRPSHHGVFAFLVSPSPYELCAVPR
Sequence of CYP2C19 (P33261 whole entry): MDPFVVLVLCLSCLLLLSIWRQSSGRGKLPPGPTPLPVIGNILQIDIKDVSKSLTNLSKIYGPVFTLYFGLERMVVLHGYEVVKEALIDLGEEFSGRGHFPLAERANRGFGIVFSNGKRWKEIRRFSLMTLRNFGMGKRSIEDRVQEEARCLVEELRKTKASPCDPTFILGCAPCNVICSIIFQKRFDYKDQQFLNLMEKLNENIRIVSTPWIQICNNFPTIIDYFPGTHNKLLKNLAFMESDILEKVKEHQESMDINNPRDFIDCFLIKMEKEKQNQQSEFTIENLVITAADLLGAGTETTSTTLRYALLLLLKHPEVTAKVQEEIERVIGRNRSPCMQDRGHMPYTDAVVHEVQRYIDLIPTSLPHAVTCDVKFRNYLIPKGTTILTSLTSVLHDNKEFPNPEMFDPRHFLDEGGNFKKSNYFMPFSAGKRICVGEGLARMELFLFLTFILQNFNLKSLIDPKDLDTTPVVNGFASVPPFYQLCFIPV

Question: For `CCN1C(=O)N(c2c(F)c(OC)cc(OC)c2F)Cc2cnc3[nH]c(CN4CCOCC4)cc3c21` [Pemigatinib, 3-(2,6-difluoro-3,5-dimethoxyphenyl)-1-ethyl-8-(morpholin-4-ylmethyl)-1,3,4,7-tetrahydro-2H-pyrrolo[3′,2′: 5,6]pyrido[4,3-d]pyrimidin-2-one], which “Extent of in vitro metabolism by CYP1A2 (in words)” value (CYP1A2) is on record?
Answer: negligible

Question: What about the “Average Percent (N = 2) of Pemigatinib Remaining vs Control (30 mins)” value (CYP1A2; recombinant CYP1A2, pemigatinib 1 μM, 30 min) of the same compound?
Answer: 92%

Question: What about the “Extent of in vitro metabolism by CYP2B6 (in words)” value (CYP2B6) of the same compound?
Answer: negligible

Question: What about the “Average Percent (N = 2) of Pemigatinib Remaining vs Control (30 mins)” value (CYP2B6; recombinant CYP2B6, pemigatinib 1 μM, 30 min) of the same compound?
Answer: 96%

Question: What about the “Extent of in vitro metabolism by CYP2C19 (in words)” value (CYP2C19) of the same compound?
Answer: negligible

Question: And the “Average Percent (N = 2) of Pemigatinib Remaining vs Control (30 mins)” value (CYP2C19; recombinant CYP2C19, pemigatinib 1 μM, 30 min)?
Answer: 95%

Question: What about the “Extent of in vitro metabolism by CYP2D6 (in words)” value (CYP2D6) of the same compound?
Answer: negligible

Question: And the “Average Percent (N = 2) of Pemigatinib Remaining vs Control (30 mins)” value (CYP2D6; recombinant CYP2D6, pemigatinib 1 μM, 30 min)?
Answer: 94%

Question: What about the “Extent of in vitro metabolism by CYP3A4 (in words)” value (CYP3A4) of the same compound?
Answer: predominantly metabolized; also recorded: metabolized to the greatest extent

Question: And the “Average Percent (N = 2) of Pemigatinib Remaining vs Control (30 mins)” value (CYP3A4; recombinant CYP3A4, pemigatinib 1 μM, 30 min)?
Answer: 14%

Question: And the “Oral absorption of pemigatinib (in words)” value ([1]; mass balance and metabolite identification data)?
Answer: nearly complete

Question: And the “Renal excretion (unchanged pemigatinib excreted in urine)” value ([1]; mass balance data)?
Answer: ~1.0 % of the dose

Question: And the “Unchanged pemigatinib recovered in feces” value ([1]; mass balance data)?
Answer: 1.3 % of the administered radioactive dose

Question: And the AUC ([2]; multiple oral dose 6 mg)?
Answer: 1.11 µM·h

Question: What about the Cmax ([2]; multiple oral dose 6 mg) of the same compound?
Answer: 101 nM

Question: And the AUC ([2]; multiple oral dose 9 mg)?
Answer: 1.51 µM·h

Question: And the Cmax ([2]; multiple oral dose 9 mg)?
Answer: 161 nM

Question: What about the AUC ([2]; multiple oral dose 13.5 mg) of the same compound?
Answer: 2.6 µM·h

Question: And the Cmax ([2]; multiple oral dose 13.5 mg)?
Answer: 175 nM

Question: What about the AUC ([2]; multiple oral dose 20 mg) of the same compound?
Answer: 4.18 µM·h

Question: What about the Cmax ([2]; multiple oral dose 20 mg) of the same compound?
Answer: 380 nM

Question: And the “Permeability of pemigatinib (in words)” value [3]?
Answer: high permeability

Question: What about the “Dry mouth TEAE, %” value [4, 6] of the same compound?
Answer: (11.1) %

Question: What about the “Dry skin TEAE, %” value [4, 6] of the same compound?
Answer: (11.1) %

Question: What about the “Headache TEAE, %” value [4, 6] of the same compound?
Answer: (16.7) %

Question: What about the “Nausea TEAE, %” value [4, 6] of the same compound?
Answer: (5.6) %

Question: And the “Paraesthesia TEAE, %” value [4, 6]?
Answer: (0) %

Question: What about the “Rash papular TEAE, %” value [4, 6] of the same compound?
Answer: (11.1) %

Question: And the “Somnolence TEAE, %” value [4, 6]?
Answer: (11.1) %

Question: And the “Vision blurred TEAE, %” value [4, 6]?
Answer: (11.1) %

Question: And the “Most common TEAE” value ([4]; both cohorts)?
Answer: headache

Question: And the “Serious TEAEs or deaths” value ([4]; both cohorts)?
Answer: no serious TEAEs or deaths

Question: What about the “TEAEs of grade 3 or higher” value ([4]; both cohorts) of the same compound?
Answer: no TEAEs of grade 3 or high

Question: What about the “Treatment discontinuations or dose interruptions due to TEAEs” value ([4]; both cohorts) of the same compound?
Answer: no treatment discontinuations or dose interruptions due to TEAEs

Question: And the “Safety and tolerability (overall conclusion)” value ([4]; healthy male and female volunteers)?
Answer: safe and generally well tolerated

Question: What about the AUC0-t [5, 7] of the same compound?
Answer: 0.634 µM·h

Question: And the “AUC0-∞” value [5, 7]?
Answer: 0.672 µM·h

Question: What about the CL/F [5, 7] of the same compound?
Answer: 13.7 L/h

Question: What about the CL/F [5, 8] of the same compound?
Answer: 14.5 ± 4.55 L/h

Question: And the t1/2 [5, 8]?
Answer: 12.1 ± 2.74 h

Question: And the AUC0-t [5, 9]?
Answer: 1.9 µM·h

Question: And the “AUC0-∞” value [5, 9]?
Answer: 1.96 µM·h

Question: And the CL/F [5, 9]?
Answer: 14.1 L/h

Question: And the AUC0-t [5, 10]?
Answer: 1.98 ± 0.526 µM·h

Question: And the CL/F [5, 10]?
Answer: 14.8 ± 4.86 L/h

Question: What about the t1/2 [5, 10] of the same compound?
Answer: 12.9 ± 2.90 h

Question: And the Tmax ([5]; Cohort 2: 13.5 mg pemigatinib alone or with rifampin 600 mg QD, median)?
Answer: 1.0 h

Question: What about the “Oral clearance of pemigatinib (in words)” value ([5]; in vivo, po) of the same compound?
Answer: low oral clearance

Question: And the “AUC Ratio, Observed” value [5, 11]?
Answer: 1.88

Question: What about the “Cmax Ratio, Observed” value [5, 11] of the same compound?
Answer: 1.17

Question: And the Cmax ([5]; read-out: Observed Cmax, single oral 13.5 mg, geometric mean)?
Answer: 158 nM
